The text below walks through data of US4548819A, “Derivatives of 9-(2-hydroxyethoxymethyl) guanine” (priority 1983, dated 1985).

In brackets after ≈: the same amount, converted by molar mass. Where a name gives a salt, the structure may show the parent alone.

One experiment relates to HSV-1 (KOS). Description: Antiviral activity in vitro: retardation of virus-induced cytopathogenicity in primary rabbit kidney cells, HSV-1 (KOS). To be noted: Human alphaherpesvirus 1, average of 2 or 3 determinations, read-out: Minimum Inhibitory Concentration (concentration necessary to reduce by 50% the cytopathogenicity induced by the virus). Format: cell-based, herpes simplex virus, Type 1. The source says:
(§1) In a series of biological tests an investigation was made of the activity of the compounds of Examples 1-3 in comparison with acyclovir against various viruses in cell cultures of primary rabbit kidney cells.
(§2) The viruses used were: herpes simplex type 1 (strains KOS, Mc Intyre and F) and herpes simplex type 2 (strains Lyons, G and 196).
(§3) The origin of the six herpes simplex strains and the method for the measurement of the retardation of the cytopathogenicity induced by the virus are described by E. de Clercq et al. in J. Infect Dis., 141, 563 (1980).
(§4) The results of the tests are reproduced in the following table, where they are expressed in the minimum inhibitory concentration, that is to say the concentration (in μg/ml) which is necessary to reduce by 50% the cytopathogenicity induced by the virus in the cell culture. In all cases average values of 2 or 3 separate determinations are given.
(Cytopathic effects are the visible damage that an infection or toxin causes in cultured cells.)

The next experiment has as its system HSV-2 (Lyons). As to the kind of experiment: Antiviral activity in vitro: retardation of virus-induced cytopathogenicity in primary rabbit kidney cells, HSV-2 (Lyons). The conditions noted are these: Human alphaherpesvirus 2, average of 2 or 3 determinations, read-out: Minimum Inhibitory Concentration (concentration necessary to reduce by 50% the cytopathogenicity induced by the virus). It is filed as cell-based, herpes simplex virus, Type 2.
Text: as §1, §2, §3, §4

The subject of the next experiment is HSV-1 (McIntyre). Description: Antiviral activity in vitro: retardation of virus-induced cytopathogenicity in primary rabbit kidney cells, HSV-1 (McIntyre). Format: cell-based, herpes simplex virus, Type 1. The conditions noted are these: Human alphaherpesvirus 1, average of 2 or 3 determinations, read-out: Minimum Inhibitory Concentration (concentration necessary to reduce by 50% the cytopathogenicity induced by the virus).
Text: as §1, §2, §3, §4

The subject of another experiment is HSV-2 (G). Description: Antiviral activity in vitro: retardation of virus-induced cytopathogenicity in primary rabbit kidney cells, HSV-2 (G). Format: cell-based, herpes simplex virus, Type 2. To be noted: Human alphaherpesvirus 2, average of 2 or 3 determinations, read-out: Minimum Inhibitory Concentration (concentration necessary to reduce by 50% the cytopathogenicity induced by the virus).
Text: as §1, §2, §3, §4

The subject of the next experiment is HSV-1 (F). As to the kind of experiment: Antiviral activity in vitro: retardation of virus-induced cytopathogenicity in primary rabbit kidney cells, HSV-1 (F). It is filed as cell-based, herpes simplex virus, Type 1. The conditions noted are these: Human alphaherpesvirus 1, average of 2 or 3 determinations, read-out: Minimum Inhibitory Concentration (concentration necessary to reduce by 50% the cytopathogenicity induced by the virus).
Text: as §1, §2, §3, §4

Another experiment concerns HSV-2 (196). As to the kind of experiment: Antiviral activity in vitro: retardation of virus-induced cytopathogenicity in primary rabbit kidney cells, HSV-2 (196). The conditions noted are these: Human alphaherpesvirus 2, average of 2 or 3 determinations, read-out: Minimum Inhibitory Concentration (concentration necessary to reduce by 50% the cytopathogenicity induced by the virus). Format: cell-based, herpes simplex virus, Type 2.
Text: as §1, §2, §3, §4

A further experiment has as its system herpes viruses. The conditions noted are these: H. J. Schaeffer et al, Nature, 272, 583-585 (1978); cited from earlier work.
Another experiment concerns HSV-1 (strain McIntyre). As to the kind of experiment: Antiviral activity in vivo: HSV-1 stromal keratitis in rabbits, eye drops. Here is the method: The in vivo antiviral activity of the compound of Example 1 was compared with the known antiviral bromovinyldeoxyuridine.
Eye drops containing 0.5% (w/v) of bromovinyldeoxyuridine or 1% w/v of compound of Example 1 were prepared in an isotonic borate buffer containing 1.52 g boric acid, 0.008 g borax and 0.01 g benzalkoniumchloride in 100 ml distilled water. The pH of the solution was 5.7. The vehicle alone without any antiviral ingredients was used as placebo. The eye drops were coded.
A cross-breed of California albino and Dendermonde white rabbits, weighing between 1.5 and 2 kg, were used.
Thirty rabbits were used to produce stromal keratitis according to the technique of McNeill and Kaufman (Arch. Ophthalmol. 97: 727-729, 1979). Rabbits were anesthetized by a subcutaneous injection of fentanyl citrate at 1 ml/kg. A 0.2 ml virus suspension, containing 10^4.5 plaque-forming units of HSV-1 (strain McIntyre) per ml, was injected into the central corneal stroma of both eyes.
The rabbits were numbered serially and allocated at random to three groups of […] rabbits each. Treatment consisted of administration of eye drops containing the compound of Example 1, bromovinyldeoxyuridine, or placebo eye drops. Treatment was started one day after virus inoculation. One drop of the eye drop formulation was instiled into the eye at hourly intervals, nine times as day. Therapy was continued for 5 consecutive days. Both eyes of each rabbit received the same modification.
The severity of keratitis was evaluated daily by the same person using a slitlamp. White illumination was used to examine the corneal stroma and anterior chamber structures. One percent fluorescein sodium eye drops and a cobalt blue filter were employed to judge epithelial keratitis and corneal ulceration.

The mark [1] stands for this setting: eye drops, Example 1 at 1% w/v or bromovinyldeoxyuridine at 0.5% w/v.
[2] abbreviates: iritis accompanying stromal HSV-1 keratitis, eye drops.

On to `Nc1nc2c(ncn2COCCO)c(=O)[nH]1` [Acyclovir, 9-(2-Hydroxyethoxymethyl)guanine, reference compound], for which the IC50 in the experiment on HSV-1 (KOS) is 0.08 µg/mL (≈ 0.355 µM); in the experiment on HSV-2 (Lyons), 0.04 µg/mL (≈ 0.178 µM); in the experiment with HSV-1 (McIntyre) it was 0.1 µg/mL (≈ 0.444 µM); in the experiment on HSV-2 (G) it was 0.06 µg/mL (≈ 0.266 µM); in the experiment with HSV-1 (F), 0.09 µg/mL (≈ 0.4 µM); in the experiment on HSV-2 (196), 0.06 µg/mL (≈ 0.266 µM). Moreover, the antiviral activity entry with herpes viruses is recorded as “potential antiviral activity, particularly against herpes viruses”.

Regarding `NCCC(=O)OCCOCn1cnc2c(=O)[nH]c(N)nc21` [Example 3, 9-(2-0-β-alanyloxyethoxymethyl)guanine hydrochloride], the IC50 with HSV-1 (KOS) came out at 0.2 µg/mL; in the experiment on HSV-2 (Lyons), 0.1 µg/mL; in the experiment with HSV-1 (McIntyre), 0.4 µg/mL; with HSV-2 (G) it was 0.15 µg/mL; in the experiment with HSV-1 (F), 0.5 µg/mL; in the experiment on HSV-2 (196), 0.1 µg/mL.

On to `CC(N)C(=O)OCCOCn1cnc2c(=O)[nH]c(N)nc21` (stereo not drawn) [Example 2, 9-(2-0-α-alanyloxyethoxymethyl)guanine hydrochloride], for which the IC50 in the experiment on HSV-1 (KOS) is 0.4 µg/mL; in the experiment with HSV-2 (Lyons), 0.07 µg/mL; in the experiment on HSV-1 (McIntyre) it was 0.4 µg/mL; with HSV-2 (G), 0.2 µg/mL; with HSV-1 (F) it was 0.4 µg/mL; in the experiment with HSV-2 (196) it was 0.1 µg/mL.

As to `Cl.NCC(=O)OCCOCn1cnc2c(=O)[nH]c(N)nc21` [Example 1, 9-(2-glycyloxyethoxymethyl)guanine hydrochloride], the IC50 in the experiment on HSV-1 (KOS) stood at 0.1 µg/mL; with HSV-2 (Lyons) it was 0.04 µg/mL; in the experiment with HSV-1 (McIntyre), 0.1 µg/mL; in the experiment with HSV-2 (G) it was 0.08 µg/mL; in the experiment on HSV-1 (F), 0.1 µg/mL; in the experiment with HSV-2 (196) it was 0.07 µg/mL. In the experiment with HSV-1 (strain McIntyre) (setting [1]), the “difference in keratitis score versus placebo” value is on record as “statistically significant throughout the whole observation period”. Besides, the “progression or healing of stromal disease” value in the experiment with HSV-1 (strain McIntyre) (setting [1]) is “prevented the progression of stromal disease”. The “suppression of stromal keratitis” value with HSV-1 (strain McIntyre) (eye drops, Example 1 at 1% w/v or bromovinyldeoxyuridine at 0.5% w/v, hourly nine times a day, 5 days) is on record as “effective in suppressing stromal keratitis”. Further, the “difference in iritis scores versus placebo” value with HSV-1 (strain McIntyre) (setting [2]) is recorded as “significant from day 2 till day 8”. The “reduction in the iritis scores” value with HSV-1 (strain McIntyre) (setting [2]) was “significant reduction in the iritis scores”. For the same compound, the mean keratitis scores entry with HSV-1 (strain McIntyre) (once treatment was initiated, 1% w/v eye drops) is “remained nearly constant”.
